The record followed here is patent US9512107B2, “Therapeutically active compositions and their methods of use” (Agios Pharmaceuticals, Inc., priority 2012, dated 2016).

One experiment concerns the target T1, IDH2 R172K (Homo sapiens, UniProt P48735, R172K).
T1 sequence (P48735 40-452 R172K): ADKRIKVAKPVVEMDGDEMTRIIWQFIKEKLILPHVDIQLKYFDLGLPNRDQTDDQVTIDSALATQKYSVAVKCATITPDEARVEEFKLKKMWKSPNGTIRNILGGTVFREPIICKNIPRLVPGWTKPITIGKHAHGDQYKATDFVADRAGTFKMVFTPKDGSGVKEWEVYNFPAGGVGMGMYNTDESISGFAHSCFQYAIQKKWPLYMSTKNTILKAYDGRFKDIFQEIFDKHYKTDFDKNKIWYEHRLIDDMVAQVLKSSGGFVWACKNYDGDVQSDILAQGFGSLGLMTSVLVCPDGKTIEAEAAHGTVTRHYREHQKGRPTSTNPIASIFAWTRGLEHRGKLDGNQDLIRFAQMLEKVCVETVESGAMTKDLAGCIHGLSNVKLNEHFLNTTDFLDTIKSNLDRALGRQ
In words: IDH2 R172K enzymatic assay (NADPH cofactor depletion, diaphorase/resazurin readout). The class given is biochemical. The following applies: read-out: Enz R172K. The gist of the method: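 Test compounds are incubated with the mutant enzyme for one hour at ambient temperature. A substrate mix of 50 μM NADPH plus 6.3 mM α-KG initiates turnover, which proceeds for one hour. Diaphorase and resazurin then halt the reaction by depleting the cofactor and convert the remaining NADPH into a fluorescent signal.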
A general note: Resazurin is reduced to fluorescent resorufin, in cell work by metabolically active cells.

The subject of experiment [1] is U87MG pLVX-IDH2 R140Q-neo cells. Nature of the experiment: U87MG pLVX-IDH2 R140Q-neo cell based assay, 2-HG in media by LC-MS at 48 hours. The following applies: Homo sapiens, U-87 MG. The method in brief: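 U87MG cells stably expressing IDH2 R140Q were seeded overnight, then exposed to compound at 0.2% final DMSO at 37 °C, 5% CO2. 2-HG in the medium was quantified by LC-MS at 48 h. Growth inhibition was read by CellTiter-Glo luminescence at 72 h.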

Another experiment concerns the target T2, IDH2 R140Q (Homo sapiens, UniProt P48735, R140Q).
T2 sequence (P48735 40-452 R140Q): T1 sequence (P48735 40-452 R172K) with R101Q, K133R
Nature of the experiment: IDH2 R140Q enzymatic assay (cofactor depletion, similar format). The following applies: read-out: Enz R140Q. The class given is biochemical.

SMILES strings stand for the structures. Substitutions are numbered along the chain they refer to. Bounds are passed on as bounds.

On to `CC(C)C(CO)Nc1nc(Nc2ccccc2)nc(-c2ccccc2)n1` (stereo not drawn) [Compound 242, 3-methyl-2-(4-phenyl-6-(phenylamino)-1,3,5-triazin-2-ylamino)butan-1-ol], for which the results for the IC50 (at IDH2 R172K; in experiment [1]; on IDH2 R140Q) were 1000 to 10000 nM, 100 to 1000 nM and 100 to 1000 nM, respectively.
In the case of `CC(C)OCC(=O)Nc1nc(Nc2ccccc2)nc(-c2ccccc2)n1` [Compound 244, 2-isopropoxy-N-(4-phenyl-6-(phenylamino)-1,3,5-triazin-2-yl)acetamide], the IC50 at IDH2 R172K is 100 to 1000 nM; in experiment [1] it was 1000 to 10000 nM; on IDH2 R140Q it was 100 to 1000 nM.
As to `CC1(C(=O)Nc2nc(Nc3ccccc3)nc(-c3ccccc3)n2)CC1` [Compound 245], the IC50 at IDH2 R172K was 100 to 1000 nM; in experiment [1], 100 to 1000 nM; on IDH2 R140Q, < 100 nM.
With `CC(C)Nc1nc(Nc2cccc(C#N)c2)nc(-c2ccccn2)n1` [Compound 246, 3-(4-(isopropylamino)-6-(pyridin-2-yl)-1,3,5-triazin-2-ylamino)benzonitrile], the IC50 at IDH2 R172K is 100 to 1000 nM; in experiment [1], < 100 nM; on IDH2 R140Q, 100 to 1000 nM.
For `CC(C)Nc1nc(Nc2ccccc2)nc(-c2cccc(C(F)(F)F)n2)n1` [Compound 247, N^2-isopropyl-N^4-phenyl-6-(6-(trifluoromethyl)pyridin-2-yl)-1,3,5-triazine-2,4-diamine], the IC50 (on IDH2 R172K; in experiment [1]; on IDH2 R140Q) was < 100 nM throughout.
Consider `CCNc1nc(Nc2ccncc2)nc(-c2ccccc2)n1` [Compound 248, N^2-ethyl-6-phenyl-N^4-(pyridin-4-yl)-1,3,5-triazine-2,4-diamine], for which the IC50 at IDH2 R172K is 1000 to 10000 nM; in experiment [1], 100 to 1000 nM; on IDH2 R140Q, < 100 nM.
With `CCCNc1nc(Nc2ccncc2)nc(-c2ccccc2)n1` [Compound 249, 6-phenyl-N^2-propyl-N^4-(pyridin-4-yl)-1,3,5-triazine-2,4-diamine], the IC50 was 100 to 1000 nM at IDH2 R172K, 100 to 1000 nM in experiment [1] and < 100 nM at IDH2 R140Q.
With `c1ccc(-c2nc(NCC3CCC3)nc(Nc3ccncc3)n2)cc1` [Compound 250, N^2-(cyclobutylmethyl)-6-phenyl-N^4-(pyridin-4-yl)-1,3,5-triazine-2,4-diamine], the figures for the IC50 (at IDH2 R172K; in experiment [1]; on IDH2 R140Q) were 100 to 1000 nM, 100 to 1000 nM and < 100 nM, respectively.
`FC1(F)CC(Nc2nc(Nc3ccncc3)nc(-c3ccccc3)n2)C1` [Compound 253, N^2-(3,3-difluorocyclobutyl)-6-phenyl-N^4-(pyridin-4-yl)-1,3,5-triazine-2,4-diamine]: the IC50 on IDH2 R172K was 100 to 1000 nM; in experiment [1] it was < 100 nM; at IDH2 R140Q it was < 100 nM.
With `FC1(F)CCC(Nc2nc(Nc3ccncc3)nc(-c3ccccc3)n2)CC1` [Compound 254, N^2-(4,4-difluorocyclohexyl)-6-phenyl-N^4-(pyridin-4-yl)-1,3,5-triazine-2,4-diamine], the IC50 at IDH2 R172K was 100 to 1000 nM; in experiment [1] it was 100 to 1000 nM; on IDH2 R140Q, < 100 nM.
In the case of `CC(Nc1nc(Nc2ccncc2)nc(-c2ccccc2)n1)C(C)(C)C` (stereo not drawn) [Compound 255, N^2-(3,3-dimethylbutan-2-yl)-6-phenyl-N^4-(pyridin-4-yl)-1,3,5-triazine-2,4-diamine], the IC50 was 100 to 1000 nM on IDH2 R172K, < 100 nM in experiment [1] and < 100 nM at IDH2 R140Q.
Take `CC(Nc1nc(Nc2ccncc2)nc(-c2ccccc2)n1)C1CC1` (stereo not drawn) [Compound 257, N^2-(1-cyclopropylethyl)-6-phenyl-N^4-(pyridin-4-yl)-1,3,5-triazine-2,4-diamine]: the IC50 was 100 to 1000 nM at IDH2 R172K, 100 to 1000 nM in experiment [1] and < 100 nM on IDH2 R140Q.
Regarding `CC(C)(CO)CNc1nc(Nc2ccncc2)nc(-c2ccccc2)n1` [Compound 259, 2,2-dimethyl-3-(4-phenyl-6-(pyridin-4-ylamino)-1,3,5-triazin-2-ylamino)propan-1-ol], the IC50 at IDH2 R172K is > 10000 nM; in experiment [1] it was 100 to 1000 nM; at IDH2 R140Q, 100 to 1000 nM.
On to `CCCCNc1nc(Nc2ccnc(Cl)c2)nc(-c2ccccc2)n1` [Compound 260], for which the IC50 (on IDH2 R172K; in experiment [1]; at IDH2 R140Q) was < 100 nM each time.
Consider `CC(C)(CO)CNc1nc(Nc2ccnc(Cl)c2)nc(-c2ccccc2)n1` [Compound 261], for which the IC50 at IDH2 R172K was 100 to 1000 nM; in experiment [1], < 100 nM; at IDH2 R140Q, < 100 nM.
With `CCOCCNc1nc(Nc2ccncc2)nc(-c2ccccc2)n1` [Compound 262, N^2-(2-ethoxyethyl)-6-phenyl-N^4-(pyridin-4-yl)-1,3,5-triazine-2,4-diamine], the figures for the IC50 (at IDH2 R172K; in experiment [1]; on IDH2 R140Q) were 1000 to 10000 nM, 100 to 1000 nM and 100 to 1000 nM, respectively.
Regarding `FC(F)(F)CCNc1nc(Nc2ccncc2)nc(-c2ccccc2)n1` [Compound 263, 6-phenyl-N^2-(pyridin-4-yl)-N^4-(3,3,3-trifluoropropyl)-1,3,5-triazine-2,4-diamine], the IC50 at IDH2 R172K is 1000 to 10000 nM; in experiment [1] it was 100 to 1000 nM; on IDH2 R140Q, < 100 nM.
Regarding `CC(C)Nc1nc(Nc2cncnc2)nc(-c2ccccc2)n1` [Compound 266, N^2-isopropyl-6-phenyl-N^4-(pyrimidin-5-yl)-1,3,5-triazine-2,4-diamine], the IC50 on IDH2 R172K is 1000 to 10000 nM; in experiment [1], 100 to 1000 nM; on IDH2 R140Q, < 100 nM.
On the same counts, the results for `O[C@@H]1CC[C@@H](Nc2nc(Nc3ccccc3)nc(-c3ccccc3)n2)C1` [Compound 267, (1R,3R)-3-(4-phenyl-6-(phenylamino)-1,3,5-triazin-2-ylamino)cyclopentanol] are 1000 to 10000 nM, 100 to 1000 nM and < 100 nM.
The matching figures for `c1ccc(Nc2nc(NC3CCCOC3)nc(-c3ccccc3)n2)cc1` (stereo not drawn) [Compound 268, N^2,6-diphenyl-N^4-(tetrahydro-2H-pyran-3-yl)-1,3,5-triazine-2,4-diamine]: 100 to 1000 nM, 100 to 1000 nM and < 100 nM.
On the same counts, the results for `COCC(C)Nc1nc(Nc2ccccc2)nc(-c2ccccc2)n1` (stereo not drawn) [Compound 269, N^2-(1-methoxypropan-2-yl)-N^4,6-diphenyl-1,3,5-triazine-2,4-diamine] are 100 to 1000 nM, < 100 nM and < 100 nM.
In the case of `CC(C)Nc1nc(Nc2ccccc2)nc(-c2cc(C(F)(F)F)ccn2)n1` [Compound 270, N^2-isopropyl-N^4-phenyl-6-(4-(trifluoromethyl)pyridin-2-yl)-1,3,5-triazine-2,4-diamine], the figures for the IC50 (at IDH2 R172K; in experiment [1]; at IDH2 R140Q) were 100 to 1000 nM, 100 to 1000 nM and < 100 nM, respectively.
With `CC(C)Nc1nc(Nc2ccnc(C(F)(F)F)c2)nc(-c2cccc(C(F)(F)F)n2)n1` [Compound 335, N^2-isopropyl-6-(6-(trifluoromethyl)pyridin-2-yl)-N^4-(2-(trifluoromethyl)pyridin-4-yl)-1,3,5-triazine-2,4-diamine], the figures for the IC50 (on IDH2 R172K; in experiment [1]; at IDH2 R140Q) were < 100 nM, < 100 nM and 100 to 1000 nM, respectively.
Turning to `FC(F)(F)c1cc(Nc2nc(NC3COC3)nc(-c3ccccn3)n2)ccn1` [Compound 336, N^2-(oxetan-3-yl)-6-(pyridin-2-yl)-N^4-(2-(trifluoromethyl)pyridin-4-yl)-1,3,5-triazine-2,4-diamine], the IC50 on IDH2 R172K was 100 to 1000 nM; in experiment [1], < 100 nM; on IDH2 R140Q, 100 to 1000 nM.
With `FC(F)(F)c1cccc(-c2nc(Nc3cnoc3)nc(NC3COC3)n2)n1` [Compound 337, N^2-(isoxazol-4-yl)-N^4-(oxetan-3-yl)-6-(6-(trifluoromethyl)pyridin-2-yl)-1,3,5-triazine-2,4-diamine], the results for the IC50 (at IDH2 R172K; in experiment [1]; on IDH2 R140Q) were 1000 to 10000 nM, 100 to 1000 nM and 100 to 1000 nM, respectively.
`CC(C)Nc1nc(Nc2cc(F)cc(F)c2)nc(-c2cccc(Cl)n2)n1` [Compound 340, 6-(6-chloropyridin-2-yl)-N^2-(3,5-difluorophenyl)-N^4-isopropyl-1,3,5-triazine-2,4-diamine]: the IC50 (on IDH2 R172K; in experiment [1]; at IDH2 R140Q) was < 100 nM in each case.
With `CC(C)Nc1nc(Nc2cccc(S(=O)(=O)NC3CC3)c2)nc(-c2ccccc2)n1` [Compound 341, N-cyclopropyl-3-(4-(isopropylamino)-6-phenyl-1,3,5-triazin-2-ylamino)benzenesulfonamide], the IC50 at IDH2 R172K was 100 to 1000 nM; in experiment [1], < 100 nM; on IDH2 R140Q, < 100 nM.
